This is an account of results in PubChem BioAssay AID244 (DTP/NCI, 2004).

“And” between values parts separate entries of the source, which are not always exact repeats. Equal entries are not always repeated. Inconclusive results are not listed.

In the experiment the test system is CD2F1 mice, Lymphoma 8 ip, survival T/C. Nature of the experiment: NCI In Vivo Anticancer Drug Screen. Data for tumor model Lymphoma 8 (intraperitoneal) in CD2F1 (CDF1) mice. Conditions: higher = longer survival. On the procedure:
The antitumor activity of compounds was measured in mice bearing transplantable tumors. Survival or tumor size were measured and the results are expressed as the measurement made in the treated group (T) divided by the measurement made in the vehicle treated control group (C). The tumor model used in this assay is Lymphoma 8 (intraperitoneal) in CD2F1 (CDF1) mice

As for `N=[N+]=CC(=O)CCC(NC(=O)C(CCC(=O)C=[N+]=N)NC(=O)CCC(N)C(=O)O)C(=O)O` (stereo not drawn), the T/C runs as follows: (endpoint: median survival time, dose: 0.31 mg/kg/injection, schedule: Q04DX002 (ip), vehicle: saline) 111 % of control; (endpoint: median survival time, dose: 0.63 mg/kg/injection, schedule: Q04DX002 (ip), vehicle: saline) 107 % of control; (endpoint: median survival time, dose: 1.25 mg/kg/injection, schedule: Q04DX002 (ip), vehicle: saline) 115 % of control; (endpoint: median survival time, dose: 2.5 mg/kg/injection, schedule: Q01DX006 (ip), vehicle: saline) 121 % of control; (endpoint: median survival time, dose: 10.0 mg/kg/injection, schedule: Q01DX006 (ip), vehicle: saline) 121 % of control; (endpoint: median survival time, dose: 10.0 mg/kg/injection, schedule: Q04DX002 (ip), vehicle: saline) 169 % of control. For the same compound, the T/C reads like this: (endpoint: median survival time, dose: 20.0 mg/kg/injection, schedule: Q01DX001 (ip), vehicle: saline) 107 % of control; (endpoint: median survival time, dose: 20.0 mg/kg/injection, schedule: Q04DX002 (ip), vehicle: saline) 153 % of control; (endpoint: median survival time, dose: 40.0 mg/kg/injection, schedule: Q04DX002 (ip), vehicle: saline) 180 % of control; (endpoint: median survival time, dose: 40.0 mg/kg/injection, schedule: Q04DX003 (ip), vehicle: saline) 169 % of control; (endpoint: median survival time, dose: 60.0 mg/kg/injection, schedule: Q01DX001 (ip), vehicle: saline) 107 % of control; (endpoint: median survival time, dose: 60.0 mg/kg/injection, schedule: Q04DX002 (ip), vehicle: saline) 180 % of control. In addition, the T/C runs as follows: (endpoint: median survival time, dose: 60.0 mg/kg/injection, schedule: Q04DX003 (ip), vehicle: saline) 176 % of control; (endpoint: median survival time, dose: 80.0 mg/kg/injection, schedule: Q01DX006 (ip), vehicle: saline) 171 % of control; (endpoint: median survival time, dose: 80.0 mg/kg/injection, schedule: Q04DX003 (ip), vehicle: saline) 188 % of control.

For the compound `CC/C(=C(/CC)c1ccc(O)cc1)c1ccc(O)cc1`, the T/C by setting is: (endpoint: survival time, mean or median, dose: 12.5 mg/kg/injection, schedule: Q01DX010 (sc), vehicle: steriod suspending solution) 90 % of control; (endpoint: survival time, mean or median, dose: 25.0 mg/kg/injection, schedule: Q01DX010 (sc), vehicle: steriod suspending solution) 90 % of control; (endpoint: survival time, mean or median, dose: 50.0 mg/kg/injection, schedule: Q01DX010 (sc), vehicle: steriod suspending solution) 90 % of control and 95 % of control; (endpoint: survival time, mean or median, dose: 100.0 mg/kg/injection, schedule: Q01DX010 (sc), vehicle: steriod suspending solution) 90 % of control.

As to `COc1cc2c(c3c1c(=O)c1ccccc1n3C)C=CC(C)(C)O2`, the T/C is 100 % of control (endpoint: median survival time, dose: 12.5 mg/kg/injection, schedule: Q01DX009 (ip), vehicle: Klucel (hydroxypropylcellulose) (HPC)); 100 % of control (endpoint: median survival time, dose: 25.0 mg/kg/injection, schedule: Q01DX009 (ip), vehicle: Klucel (hydroxypropylcellulose) (HPC)); 107 % of control (endpoint: median survival time, dose: 50.0 mg/kg/injection, schedule: Q01DX009 (ip), vehicle: Klucel (hydroxypropylcellulose) (HPC)); 96 % of control (endpoint: median survival time, dose: 100.0 mg/kg/injection, schedule: Q01DX009 (ip), vehicle: Klucel (hydroxypropylcellulose) (HPC)).
